Converted amounts (≈) assume the structure as drawn. Where two headings read alike, the source gives them in different places.
What was measured:
[1] = system: Molt-4 cells and Molt-4/HIV cells; assay: cells; type: cell-based; details: for 50% Inhibitory Concentration (IC₅₀): giant cell formation inhibition, as indicated in Example 4
Description: After a test drug was dissolved in methanol medium for tissue culture was added to the solution to make a definite concentration. The concentration of methanol was finally adjusted to less than 2 %. HIV persistent injection Molt-4 cells (Molt-4/HIV cells) were precultured for 24 hours in the presence of the compound. The precultured Molt-4/HIV cells were mixed with HIV-non-infected Molt-4 cells, whereby the compound was prepared to have the same concentration as that of the preculture. The mixture was then cultured. Giant cell formation was compared between chemically intact control cells and the group to which the compound has been added 5 and 20 hours after mixing the culture to evaluate the effect of the chemical. The evaluation was made based on the method of Yamamoto et al. (Virology, 164, 542 - 546, 1988). The evaluation effect is shown in Table 1 in terms of fusion index.

mice = assay: Acute toxicity test, oral administration to mice; type: in vivo; details: 4g/kg administered orally, 3 mice in each group
From the text: The compounds of the present invention have low toxicity.

[2] = Homo sapiens, MOLT-4, read-out: 50% Inhibitory Concentration (IC₅₀)
[3] = 12.5 µg/ml, mixed culture 5 hours
[4] = 12.5 µg/ml, mixed culture 20 hours
[5] = 25 µg/ml, mixed culture 5 hours
[6] = 25 µg/ml, mixed culture 20 hours
[7] = 50 µg/ml, mixed culture 5 hours
[8] = 50 µg/ml, mixed culture 20 hours
[9] = 100 µg/ml, mixed culture 5 hours
[10] = 100 µg/ml, mixed culture 20 hours
[11] = 200 µg/ml, mixed culture 5 hours
[12] = 200 µg/ml, mixed culture 20 hours
[13] = Homo sapiens, MOLT-4, 5 h, read-out: Giant cell formation inhibitory rate (%)
[14] = Homo sapiens, MOLT-4, 20 h, read-out: Giant cell formation inhibitory rate (%)
[15] = Homo sapiens, MOLT-4, read-out: 50 % of inhibitory concentration (IC₅₀ value) of the giant cell formation inhibition

For OC[C@@H]1[C@@H](O)[C@H](O)[C@@H](O)CN1CCCC(F)(F)F [Example 15, N-(4,4,4-Trifluorobutyl)-1-deoxynojirimycin], which IC50 [1, 2] is on record?
The IC50 was 5 to 10 µg/mL (≈ 18.3 to 36.6 µM).

OC[C@@H]1[C@@H](O)[C@H](O)[C@@H](O)CN1CCCc1ccc(F)cc1 [Example 11, N-[3-(4-Fluorophenyl)-propyl]-1-deoxynojirimycin] was tested. Which IC50 [1, 2] did it give?
Its IC50 is 5 to 10 µg/mL (≈ 16.7 to 33.4 µM).

How did the “50% Inhibitory Concentration (IC₅₀)” value [1] turn out when OC[C@@H]1[C@@H](O)[C@H](O)[C@@H](O)CN1CC=Cc1cccc(Cl)c1 [Example 6, N-[3-(3-Chlorophenyl)-2-propenyl]-1-deoxynojirimycin] was run?
Its value is 50 µg/mL.

What does the source list for OC[C@@H]1[C@@H](O)[C@H](O)[C@@H](O)CN1CC=Cc1ccccc1 [Example 2, N-(3-phenyl-2-propenyl)-1-deoxynojirimycin]?
Fusion index [1, 3]: 0.14; Fusion index [1, 4]: -0.03; Fusion index [1, 5]: 0.17; Fusion index [1, 6]: -0.08; Fusion index [1, 7]: 0.06; Fusion index [1, 8]: -0.07; Fusion index [1, 9]: -0.10; Fusion index [1, 10]: 0.10; Fusion index [1, 11]: -0.08; Fusion index [1, 12]: 0.10; inhibition at 12.5 µg/mL [1, 13]: 74.1%; inhibition at 25 µg/mL [1, 13]: 68.5%; inhibition at 50 µg/mL [1, 13]: 88.9%; inhibition at 100 µg/mL [1, 13]: 100%; inhibition at 200 µg/mL [1, 13]: 100%; inhibition at 12.5 µg/mL [1, 14]: 100%; inhibition at 25 µg/mL [1, 14]: 100%; inhibition at 50 µg/mL [1, 14]: 100%; inhibition at 100 µg/mL [1, 14]: 94.7%; inhibition at 200 µg/mL [1, 14]: 94.7%; IC50 [1, 15]: 2.5 to 5 µg/mL (≈ 8.95 to 17.9 µM); giant cell formation inhibiting effect ([1]; Table 2): 90-100%; survival in the acute toxicity test (mice): all of the tested mice survived

What does the source list for OC[C@@H]1[C@@H](O)[C@H](O)[C@@H](O)CN1CC=Cc1cccc(F)c1 [Example 4, N-[3-(3-fluorophenyl) 2-propenyl]-1-deoxynojirimycin]?
Fusion index ([1]; 2.5 µg/ml, mixed culture 20 hours): 1.38; Fusion index ([1]; 5 µg/ml, mixed culture 20 hours): 1.04; Fusion index ([1]; 10 µg/ml, mixed culture 20 hours): 0.52; Fusion index ([1]; 20 µg/ml, mixed culture 20 hours): 0.32; Fusion index ([1]; 40 µg/ml, mixed culture 20 hours): 0.01; inhibition at 2.5 µg/mL [1, 14]: 28%; inhibition at 5 µg/mL [1, 14]: 46%; inhibition at 10 µg/mL [1, 14]: 73%; inhibition at 20 µg/mL [1, 14]: 83%; inhibition at 40 µg/mL [1, 14]: 99%; IC50 [1, 15]: 5 to 10 µg/mL (≈ 16.8 to 33.6 µM)

With OC[C@@H]1[C@@H](O)[C@H](O)[C@@H](O)CN1CCC=Cc1ccc(Cl)cc1 [Example 8, N-[4-(4-Chlorophenyl)-3-butenyl]-1-deoxynojirimycin] as the molecule, how does the “50% Inhibitory Concentration (IC₅₀)” value [1] read?
The value was 70 µg/mL.

OC[C@@H]1[C@@H](O)[C@H](O)[C@@H](O)CN1CCOc1ccccc1 [Control, N-(2-Phenoxyethyl)-1-deoxynojirimycin, reference compound] was tested. Which IC50 [1, 2] did it give?
The IC50 was 20 to 40 µg/mL (≈ 70.6 to 141 µM).

For OC[C@@H]1[C@@H](O)[C@H](O)[C@@H](O)CN1CCCCc1ccccc1 [Example 5, N-(4-Phenylbutyl)-1-deoxynojirimycin], which IC50 [1, 2] is on record?
The IC50 was 5 to 10 µg/mL (≈ 16.9 to 33.9 µM).

Which IC50 [1, 2] does the source give for OC[C@@H]1[C@@H](O)[C@H](O)[C@@H](O)CN1CCC=Cc1ccccc1F [Example 14, N-[4-(2-Fluorophenyl)-3-butenyl]-1-deoxynojirimycin] here?
Its IC50 is 5 to 10 µg/mL (≈ 16.1 to 32.1 µM).

Which IC50 [1, 2] does the source give for OC[C@@H]1[C@@H](O)[C@H](O)[C@@H](O)CN1CCCCC(F)(F)F [Example 16, N-(5,5,5-Trifluoropentyl)-1-deoxynojirimycin] here?
The IC50 was 2.5 to 5 µg/mL (≈ 8.7 to 17.4 µM).

OC[C@@H]1[C@@H](O)[C@H](O)[C@@H](O)CN1CC=C(c1ccc(F)cc1)c1ccc(F)cc1 [Example 9, N-[3,3-Di(4-fluorophenyl)-2-propenyl]-1-deoxynojirimycin] was tested. Which “50% Inhibitory Concentration (IC₅₀)” value [1] did it give?
The value was greater than 100 µg/mL.

Which IC50 [1, 2] does the source give for OC[C@@H]1[C@@H](O)[C@H](O)[C@@H](O)CN1CC=Cc1ccccc1F [Example 13, N-[3-(2-Fluorophenyl)-2-propenyl]-1-deoxynojirimycin] here?
The IC50 was 2.5 to 5 µg/mL (≈ 8.41 to 16.8 µM).

What does the source list for OC[C@@H]1[C@@H](O)[C@H](O)[C@@H](O)CN1CCCc1ccccc1 [Example 1, N-(3-phenylpropyl)-1-deoxynojirimycin]?
Fusion index [1, 3]: 0.11; Fusion index [1, 4]: 0.34; Fusion index [1, 5]: -0.07; Fusion index [1, 6]: 0.18; Fusion index [1, 7]: 0.19; Fusion index [1, 8]: 0.13; Fusion index [1, 9]: 0; Fusion index [1, 10]: 0.05; Fusion index [1, 11]: 0.23; Fusion index [1, 12]: 0.18; effect of inhibiting the formation of giant cells ([1]; 20 hours after mixing the culture): about 90%; inhibition at 12.5 µg/mL [1, 13]: 79.6%; inhibition at 25 µg/mL [1, 13]: 100%; inhibition at 50 µg/mL [1, 13]: 64.8%; inhibition at 100 µg/mL [1, 13]: 100%; inhibition at 200 µg/mL [1, 13]: 57.4%; inhibition at 12.5 µg/mL [1, 14]: 82.1%; inhibition at 25 µg/mL [1, 14]: 90.5%; inhibition at 50 µg/mL [1, 14]: 93.2%; inhibition at 100 µg/mL [1, 14]: 97.4%; inhibition at 200 µg/mL [1, 14]: 90.5%; IC50 [1, 15]: 5 to 10 µg/mL (≈ 17.8 to 35.5 µM); microscopic observation of giant cell formation ([1]; compared to the control cells): clearly inhibited the formation of giant cells

How did the IC50 [1, 2] turn out when Cc1ccc(CCCN2C[C@H](O)[C@@H](O)[C@H](O)[C@H]2CO)cc1 [Example 10, N-[3-(4-Methylphenyl)-propyl]-1-deoxynojirimycin] was run?
Its IC50 is 5 to 10 µg/mL (≈ 16.9 to 33.9 µM).

Which results are given for OC[C@@H]1[C@@H](O)[C@H](O)[C@@H](O)CN1CCC(c1ccccc1)c1ccccc1 [Example 3, N-(3,3-diphenyl-propyl)-1-deoxynojirimycin]?
Fusion index ([1]; 3.13 µg/ml, mixed culture 5 hours): 0.26; Fusion index ([1]; 3.13 µg/ml, mixed culture 20 hours): 1.50; Fusion index ([1]; 6.25 µg/ml, mixed culture 5 hours): 0.54; Fusion index ([1]; 6.25 µg/ml, mixed culture 20 hours): 2.16; Fusion index [1, 3]: 0.26; Fusion index [1, 4]: 1.37; Fusion index [1, 5]: 0.50; Fusion index [1, 6]: 0.89; Fusion index [1, 7]: 0.32; Fusion index [1, 8]: 0.62; inhibition at 3.13 µg/mL [1, 13]: 51.9%; inhibition at 6.25 µg/mL [1, 13]: 0%; inhibition at 12.5 µg/mL [1, 13]: 51.9%; inhibition at 25 µg/mL [1, 13]: 7.4%; inhibition at 50 µg/mL [1, 13]: 40.7%; inhibition at 3.13 µg/mL [1, 14]: 21.1%; inhibition at 6.25 µg/mL [1, 14]: 0%; inhibition at 12.5 µg/mL [1, 14]: 27.9%; inhibition at 25 µg/mL [1, 14]: 53.2%; inhibition at 50 µg/mL [1, 14]: 67.4%

OC[C@@H]1[C@@H](O)[C@H](O)[C@@H](O)CN1CC=Cc1ccccc1Cl [Example 7, N-[3-(2-Chlorophenyl)-2-propenyl]-1-deoxynojirimycin] was tested. Which “50% Inhibitory Concentration (IC₅₀)” value [1] did it give?
The value was 60 µg/mL.

How did the “50% Inhibitory Concentration (IC₅₀)” value [1] turn out when OC[C@@H]1[C@@H](O)[C@H](O)[C@@H](O)CN1CC=Cc1ccc(F)cc1 [Example 12, N-[3(4-Fuluorophenyl)-2-propenyl]-1-deoxynojirimycin] was run?
Its value is 10 µg/mL.

— patent publication EP0350012A2, “Antiviral composition” (MEIJI SEIKA KAISHA LTD., priority 1988, dated 1990)
